Reference: patent US12162861B2, “Dopamine D3 receptor selective antagonists/partial agonists; method of making; and use thereof” (THE UNITED STATES OF AMERICA, AS REPRESENTED BY THE …, priority 2016, dated 2024)

Assay: Mouse microsomal stability assay
Format: in vitro ADME
Details: mouse liver microsomes, Phase I, 10 μM compound, 0.5 mg/mL microsomes
Experimental: Mouse Microsomal Stability Assay. […] The reaction was carried out with 100 mM potassium phosphate buffer, pH 7.4, in the presence of NADPH regenerating system, (compound final concentration was 10 μM; 0.5 mg/mL microsomes). Positive controls for phase I metabolism (testosterone) were also evaluated. Compound disappearance was monitored over time using a liquid chromatography and tandem mass spectrometry (LC/MS/MS) method. All reactions were sampled in triplicate. Chromatographic analysis was performed using an Accela ultra high-performance system consisting of an analytical pump and an autosampler coupled with a TSQ Vantage mass spectrometer (Thermo Fisher Scientific Inc., Waltham, MA). […] The mobile phase used was composed of 0.1% formic acid in acetonitrile and 0.1% formic acid in H2O with gradient elution, starting with 10% (organic) linearly increasing to 99% up to 2 min, maintaining at 99% (2-2.5 min) and reequilibrating to 10% by 2.7 min. The total run time for each analyte was 4.5 min.

CCc1cc(Cl)c(OC)c(N2CCN(CC(O)CCNC(=O)c3cc4ccccc4[nH]3)CC2)c1 (racemic) [Compound 29, N-(4-(4-(3-chloro-5-ethyl-2-methoxyphenyl)piperazin-1-yl)-3-hydroxybutyl)-1H-indole-2-carboxamide]
% remaining over 1 h: > 80%
